Reference: ChEMBL document CHEMBL2412992, “Fluorescent ligands for adenosine receptors” (Bioorg Med Chem Lett, 2013)
The source made the active and inactive calls. The rule behind the calls is not given here.

Assays:
Adenosine receptor A1 [1] = target: T1, Adenosine receptor A1 (Homo sapiens, UniProt P30542); experiment: Antagonist activity at human adenosine A1 receptor expressed in CHO cells coexpressing cAMP response element assessed as inhibition of agonist-induced response by SPAP reporter gene assay in presence of forskolin; type: functional, cell-based
T1 sequence (P30542 whole entry): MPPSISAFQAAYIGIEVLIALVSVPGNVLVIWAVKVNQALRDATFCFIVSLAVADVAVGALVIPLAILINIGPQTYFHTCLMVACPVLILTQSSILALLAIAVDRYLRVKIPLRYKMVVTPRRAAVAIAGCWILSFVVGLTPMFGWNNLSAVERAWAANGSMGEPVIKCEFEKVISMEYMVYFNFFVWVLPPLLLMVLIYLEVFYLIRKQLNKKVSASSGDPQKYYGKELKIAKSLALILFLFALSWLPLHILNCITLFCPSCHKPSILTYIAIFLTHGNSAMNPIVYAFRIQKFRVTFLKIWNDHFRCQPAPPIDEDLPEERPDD

[2] = target: T2, Adenosine receptor A1 (Homo sapiens) (UniProt P30542); experiment: Displacement of [3H]R-PIA from human adenosine A1 receptor expressed in CHO cells at 10 uM after 60 mins by […] analysis relative to control; type: cell-based
T2 sequence (whole entry): T1 sequence (P30542 whole entry)

Adenosine receptor A2a [3] = target: T3, Adenosine receptor A2a (Homo sapiens, UniProt P29274); experiment: Displacement of [3H]CGS21680 from human adenosine A2A receptor expressed in HEK293 cells at 10 uM after 60 mins by […] analysis relative to control; type: cell-based
T3 sequence (P29274 whole entry): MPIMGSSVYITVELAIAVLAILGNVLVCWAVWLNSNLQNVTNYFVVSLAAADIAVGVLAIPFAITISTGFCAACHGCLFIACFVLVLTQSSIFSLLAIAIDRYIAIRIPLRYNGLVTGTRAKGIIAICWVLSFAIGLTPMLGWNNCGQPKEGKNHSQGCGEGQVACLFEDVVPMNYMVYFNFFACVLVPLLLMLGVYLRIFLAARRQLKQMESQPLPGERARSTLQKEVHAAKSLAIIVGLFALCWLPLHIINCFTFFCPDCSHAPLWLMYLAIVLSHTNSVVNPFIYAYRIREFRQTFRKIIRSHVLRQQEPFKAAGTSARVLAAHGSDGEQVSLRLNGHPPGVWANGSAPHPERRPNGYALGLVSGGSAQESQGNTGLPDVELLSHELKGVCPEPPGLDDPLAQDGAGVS

Adenosine receptor A3 [4] = target: T4, Adenosine receptor A3 (Homo sapiens, UniProt P0DMS8); type: cell-based, CHO
T4 sequence (P0DMS8 whole entry): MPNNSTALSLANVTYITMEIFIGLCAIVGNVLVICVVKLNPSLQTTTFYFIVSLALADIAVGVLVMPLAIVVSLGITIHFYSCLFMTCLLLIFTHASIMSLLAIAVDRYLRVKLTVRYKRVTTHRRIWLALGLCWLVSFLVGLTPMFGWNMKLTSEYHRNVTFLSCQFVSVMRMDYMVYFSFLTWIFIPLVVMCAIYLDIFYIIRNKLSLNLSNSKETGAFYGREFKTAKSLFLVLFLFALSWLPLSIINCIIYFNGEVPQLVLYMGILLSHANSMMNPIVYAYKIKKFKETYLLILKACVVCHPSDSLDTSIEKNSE

[5] = target: T2, Adenosine receptor A1 (Homo sapiens); experiment: Competitive antagonist activity at GFP-tagged adenosine A1 receptor (unknown origin) expressed in CHO cells assessed as stimulation of inositol phosphate accumulation by scintillation counting analysis; type: functional, cell-based
[6] = target: T2, Adenosine receptor A1 (Homo sapiens); experiment: Competitive antagonist activity at GFP-tagged adenosine A1 receptor (unknown origin) expressed in CHO cells assessed as inhibition of forskolin-stimulated cAMP accumulation by liquid scintillation counting analysis; type: functional, cell-based
Adenosine receptor A1 [7] = target: T1, Adenosine receptor A1; experiment: Displacement of [3H]R-PIA from human adenosine A1 receptor expressed in CHO cells after 60 mins by […] analysis; type: cell-based
Adenosine receptor A2a [8] = target: T3, Adenosine receptor A2a; experiment: Displacement of [3H]CGS21680 from human adenosine A2A receptor expressed in HEK293 cells after 60 mins by […] analysis; type: cell-based
Adenosine receptor A2a [9] = target: T3, Adenosine receptor A2a; experiment: Competitive binding affinity to human adenosine A2A receptor expressed in HEK293 cells after 60 mins by fluorescence polarization assay in presence of MRS5346
Adenosine receptor A2a [10] = target: T3, Adenosine receptor A2a; experiment: Displacement of [3H]CGS21680 from adenosine A2A receptor in human striatal membranes; type: cell membranes, Striatum, Membrane
Adenosine receptor A1 [11] = target: T1, Adenosine receptor A1; experiment: Displacement of [3H]DPCPX from adenosine A1 receptor in human cortical membranes; type: cell membranes
Adenosine receptor A3 [12] = target: T4, Adenosine receptor A3; type: cell-based, CHO; remark: listed apart in the source
Adenosine receptor A3 [13] = target: T4, Adenosine receptor A3; experiment: Binding affinity to human adenosine A3 receptor expressed in CHO cells by flow cytometric analysis; type: cell-based
Adenosine receptor A3 [14] = target: T4, Adenosine receptor A3; experiment: Binding affinity to human adenosine A3 receptor expressed in CHO cells after 90 mins; type: cell-based
Adenosine receptor A1 [15] = target: T5, Adenosine receptor A1 (Bos taurus, UniProt P28190); experiment: Displacement of [3H]ADAC from adenosine A1 receptor in bovine cerebral cortical membranes after 120 mins; type: cell membranes
T5 sequence (P28190 whole entry): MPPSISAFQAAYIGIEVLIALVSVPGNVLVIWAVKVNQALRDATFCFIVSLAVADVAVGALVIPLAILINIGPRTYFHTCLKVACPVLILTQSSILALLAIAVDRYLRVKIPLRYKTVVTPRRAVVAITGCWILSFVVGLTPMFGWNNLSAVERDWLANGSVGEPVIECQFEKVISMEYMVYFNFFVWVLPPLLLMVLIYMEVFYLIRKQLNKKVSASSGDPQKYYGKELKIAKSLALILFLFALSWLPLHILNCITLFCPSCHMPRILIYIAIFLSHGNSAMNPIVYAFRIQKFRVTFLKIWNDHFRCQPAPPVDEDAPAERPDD

Adenosine receptor A1 [16] = target: T6, Adenosine receptor A1 (Rattus norvegicus, UniProt P25099); experiment: Displacement of [3H]ADAC from adenosine A1 receptor in rat cerebral cortical membranes after 120 mins; type: cell membranes, Membrane
T6 sequence (P25099 whole entry): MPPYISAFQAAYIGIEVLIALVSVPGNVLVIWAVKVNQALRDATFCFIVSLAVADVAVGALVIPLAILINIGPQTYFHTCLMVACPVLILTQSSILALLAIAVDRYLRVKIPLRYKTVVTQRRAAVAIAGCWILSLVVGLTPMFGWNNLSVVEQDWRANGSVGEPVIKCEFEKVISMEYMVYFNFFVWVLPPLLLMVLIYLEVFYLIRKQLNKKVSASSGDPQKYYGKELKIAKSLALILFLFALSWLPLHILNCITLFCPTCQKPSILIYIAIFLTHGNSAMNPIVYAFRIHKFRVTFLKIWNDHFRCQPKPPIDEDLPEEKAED

Adenosine receptor A2a [17] = target: T3, Adenosine receptor A2a; experiment: Binding affinity to human adenosine A2A receptor expressed in HEK293 cells by fluorescence polarization assay; type: cell-based
[18] = target: T2, Adenosine receptor A1 (Homo sapiens); experiment: Displacement of [3H]DPCPX from human adenosine A1 receptor expressed in CHO cells up to 0.1 mM after 2 hrs by scintillation counting analysis; type: cell-based

CCNC(=O)[C@H]1O[C@@H](n2cnc3c(NCCCCCCCCCCCNC(=O)COc4ccc(/C=C/C5=[N+]6C(=Cc7ccc(-c8cccs8)n7[B-]6(F)F)C=C5)cc4)ncnc32)[C@H](O)[C@@H]1O
Kd (Adenosine receptor A1 [1]): 0.0129 µM

Cn1cc2c(nc(NCCOCCOCCNC(=S)Nc3ccc(C4c5ccc(O)cc5OC5=CC(=O)C=CC54)c(C(=O)O)c3)n3nc(-c4ccco4)nc23)n1 (stereo not drawn)
inhibition [2]: 0%
inhibition (Adenosine receptor A2a [3]): 30%
Ki (Adenosine receptor A3 [4]): 9.55 µM

CCNC(=O)[C@H]1O[C@@H](n2cnc3c(NCCCCNC(=O)COc4ccc(/C=C/C5=[N+]6C(=Cc7ccc(-c8cccs8)n7[B-]6(F)F)C=C5)cc4)ncnc32)[C@H](O)[C@@H]1O
Kd (Adenosine receptor A1 [1]): 0.0162 µM

CCCn1c(=O)c2[nH]c(-c3ccc(OCC(=O)NCCNC(=O)CCCCCNC(=O)COc4ccc(/C=C/C5=[N+]6C(=Cc7ccc(-c8cccs8)n7[B-]6(F)F)C=C5)cc4)cc3)nc2n(CCC)c1=O
pKb [5]: 6.5
pKb [6]: 6.4

Cn1cc2c(nc(NNC(=S)Nc3ccc(C4c5ccc(O)cc5OC5=CC(=O)C=CC54)c(C(=O)O)c3)n3nc(-c4ccco4)nc23)n1 (stereo not drawn)
Ki (Adenosine receptor A1 [7]): 9.55 µM
Ki (Adenosine receptor A2a [8]): 0.933 µM
Ki (Adenosine receptor A3 [4]): 0.794 µM

OC[C@H]1O[C@@H](n2cnc3c(NC4CCCC4)ncnc32)[C@H](O)[C@@H]1O [N6-CYCLOPENTYLADENOSINE]
Ki (Adenosine receptor A2a [9]): 0.814 µM

CCNC(=O)[C@H]1O[C@@H](n2cnc3c(NCCOCCOCCNC(=O)COc4ccc(/C=C/C5=[N+]6C(=Cc7ccc(-c8cccs8)n7[B-]6(F)F)C=C5)cc4)ncnc32)[C@H](O)[C@@H]1O
Kd (Adenosine receptor A1 [1]): 0.0178 µM

CCNC(=O)[C@H]1O[C@@H](n2cnc3c(NCCCCCCCCCCNc4ccc([N+](=O)[O-])c5nonc45)ncnc32)[C@H](O)[C@@H]1O
Ki (Adenosine receptor A2a [10]): 6.17 µM
Ki (Adenosine receptor A1 [11]): 6.46 µM
Ki (Adenosine receptor A3 [12]): 0.0282 µM

CCNC(=O)[C@H]1O[C@@H](n2cnc3c(NCCCCNc4ccc([N+](=O)[O-])c5nonc45)ncnc32)[C@H](O)[C@@H]1O
Ki (Adenosine receptor A2a [10]): > 10 µM
Ki (Adenosine receptor A1 [11]): > 10 µM
Ki (Adenosine receptor A3 [12]): 0.389 µM

N=c1ccc2c(-c3ccc(C(=O)NCCCCCCn4cc(CCCC(=O)Nc5nc6ccc(Cl)cc6c6nc(-c7ccco7)nn56)nn4)cc3C(=O)O)c3ccc(N)c(S(=O)(=O)O)c3oc-2c1S(=O)(=O)O
Ki (Adenosine receptor A1 [7]): 0.0871 µM
Ki (Adenosine receptor A2a [8]): 0.0741 µM
Kd (Adenosine receptor A3 [13]): 0.00515 µM
Kd (Adenosine receptor A3 [14]): 0.00665 µM
Ki (Adenosine receptor A3 [4]): 0.00646 µM

CCNC(=O)[C@H]1O[C@@H](n2cnc3c(NCCCCCCNc4ccc([N+](=O)[O-])c5nonc45)ncnc32)[C@H](O)[C@@H]1O
Ki (Adenosine receptor A2a [10]): 6.17 µM
Ki (Adenosine receptor A1 [11]): > 10 µM
Ki (Adenosine receptor A3 [12]): 0.024 µM

O=C1C=CC2C(=C1)Oc1cc(O)ccc1C2c1ccc(NC(=S)NCCNC(=O)Cc2ccc(NC(=O)Cc3ccc(Nc4ncnc5c4ncn5[C@@H]4O[C@H](CO)[C@@H](O)[C@H]4O)cc3)cc2)cc1C(=O)O (stereo partly drawn)
Ki (Adenosine receptor A1 [15]): 0.00288 µM
Ki (Adenosine receptor A1 [16]): 0.00724 µM

Cn1cc2c(nc(NCCCCCNC(=S)Nc3ccc(C4c5ccc(O)cc5OC5=CC(=O)C=CC54)c(C(=O)O)c3)n3nc(-c4ccco4)nc23)n1 (stereo not drawn)
inhibition [2]: 9%
Ki (Adenosine receptor A2a [8]): 1.78 µM
Ki (Adenosine receptor A3 [4]): 5.62 µM

N=c1ccc2c(-c3ccc(C(=O)NCCCCCCn4cc(NCCNC(=O)COc5ccc(CCCn6ncc7c6nc(N)n6nc(-c8ccco8)nc76)cc5)nn4)cc3C(=O)O)c3ccc(N)c(S(=O)(=O)O)c3oc-2c1S(=O)(=O)O
Kd (Adenosine receptor A2a [17]): 0.0165 µM

CCCn1c(=O)c2[nH]c(-c3ccc(OCC(=O)NCCNC(=O)CCCCCCC(=O)NCCNC(=O)CCC4=[N+]5C(=Cc6c(C)cc(C)n6[B-]5(F)F)C=C4)cc3)nc2n(CCC)c1=O
Activity [18]: inactive
